7 molecules from article PMC7731115, “Cytotoxic, Apoptosis-Inducing Activities, and Molecular Docking of a New Sterol from Bamboo Shoot Skin Phyllostachys heterocycla var. pubescens” (Molecules, 2020) can be followed below.

“And” between values parts separate entries of the source, which are not always exact repeats. Equal values may be shown once. Read-outs that look alike come from different tables or passages of the source.

One assay has as its system MCF-7. The experiment in a line: MTT cytotoxic assay, MCF-7. In kind it is cell-based, human. How it is done:
(§1) Crude extracts, in addition to six sterol compounds, were screened for their cytotoxic activities against four cancerous cell lines: HepG2, Hela, A549, and MCF-7 and a noncancerous breast (MCF-10A) cell line to test their safety using the MTT assay (Table 2). […] After fractionation and isolation of the pure compounds, six compounds were tested for their cytotoxicity. […] Additionally, it was safe against the normal cells, with IC50 ≥ 50.
(§2) Crude extract, together with six of the identified sterols, were screened for their cytotoxic activities against liver HepG2, breast MCF-7, and normal cells (MCF-10A), as well. According to the standard cell culture work, each cell line was cultured in a proper complete medium. The treatment of cells was performed with the crude extract and then, with the identified compounds for a 48-h incubation, and Fluorouracil (5-FU) was used as the standard. Percent of cell viability was calculated by the following formula: % cell viability = (Mean absorbance of tested compound)/(Mean absorbance in control) × 100. Then, IC50 in µM was calculated using GraphPad Prism 7.
A general note: Tetrazolium assays rely on reduction of a dye to a coloured formazan, in cell work by metabolically active cells.

A further assay concerns Hela. The experiment in a line: MTT cytotoxic assay, Hela. In kind it is cell-based. The conditions noted are these: Homo sapiens. The method, then: as §1, §2
The next assay concerns A549. The experiment in a line: MTT cytotoxic assay, A549. In kind it is cell-based. The note with it: Homo sapiens, read-out: IC50 ± SD A549. The method, then:
as §1, §2

A further assay relates to Normal Cells MCF-10A. Briefly: MTT cytotoxic assay, normal cells MCF-10A. The format is cell-based. The note with it: Homo sapiens, pure compounds, 48-h incubation, n = 3, read-out: IC50 ± SD Normal Cells MCF-10A. The method, then: as §1, §2
The test system of a further assay is HepG2. Briefly: MTT cytotoxic assay, HepG2. In kind it is cell-based. The conditions noted are these: Homo sapiens, read-out: IC50 ± SD HepG2. The method, then: as §1, §2
Another assay relates to P53 gene. The experiment in a line: RT-PCR mRNA expression in MCF-7 cells, P53. The format is cell-based, human. The conditions noted are these: MCF-7, treated at IC50 = 25.92 μM, 48 h. How it is done: (§3) The results are in accordance with the proposed apoptotic pathway for anticancer activity.
(§4) At the end of treatments, cells were collected, and total RNA was extracted using a RNeasy® Mini Kit (Qiagen, Hilden, Germany) according to the manufacturer’s instructions. cDNA synthesis was performed with 500 ng of RNA using the i-Script cDNA synthesis kit (Bio-Rad, Hercules, CA, USA) following the manufacturer’s instructions. Real-time (RT)-PCR reactions consisted of 25-µL Fluocycle®II SYBR® (Euroclone, Milan, Italy), 1.5 µL of both 10-µM forward and reverse primers, 3-µL cDNA, and 19 µL of H2O. All reactions were performed for 35 cycles using this temperature profile: 95 °C for 5 m (initial denaturation); 95 °C for […] (Denaturation), 55 °C for […] (Annealing), and 72 °C for […] (Extension). Then, The cycle threshold (Ct) values were collected and the relative folds of changes between all the samples. Primer used were listed in the Supplementary Files.

A further assay deals with BAX. The experiment in a line: RT-PCR mRNA expression in MCF-7 cells, BAX. In kind it is cell-based, human. The conditions noted are these: MCF-7, treated at IC50 = 25.92 μM, 48 h. How it is done:
as §3, §4

Assay [1] deals with MCF-7 cancer cells. Briefly: Annexin V/PI flow cytometric apoptosis/necrosis assessment. In kind it is cell-based, human. The conditions noted are these: MCF-7, treated at IC50 = 25.92 μM, 48 h. The source says:
(§5) Moreover, MCF-7 cancer cells after compound 1 treatment were subjected to DNA flow cytometry to analyse the cell cycle kinetics to determine the compound’s phase interference with the cell cycle. The study of the cell cycle is a crucial test showing the cell accumulation percentage in each growth phase with cytotoxic substances after treatment. […] Consequently, compound 1 induced pre-G1 and G2/M-phase cell cycle arrest and blocked the progression of MCF-7 cancer cells that deteriorated the genetic material.
(§6) Cell cycle analysis, as well as apoptotic assays, were performed in detail according to the previously described methods. Full methodologies of flow cytometric assays were provided in the Supplementary File.
A general note: A flow cytometer gives signals particle by particle.

Another assay has as its system caspase 8. Briefly: RT-PCR mRNA expression in MCF-7 cells, caspase 8. In kind it is cell-based, human. The note with it: MCF-7, treated at IC50 = 25.92 μM, 48 h. How it is done: as §3, §4
Assay [2] has as its system MCF-7 cancer cells. The experiment in a line: DNA content flow cytometry cell cycle analysis. The format is cell-based, human. The note with it: MCF-7, treated at IC50 = 25.92 μM, 48 h.
Excerpt: as §5, §6

The subject of the next assay is caspase 9. Briefly: RT-PCR mRNA expression in MCF-7 cells, caspase 9. In kind it is cell-based, human. The conditions noted are these: MCF-7, treated at IC50 = 25.92 μM, 48 h. How it is done:
as §3, §4

The subject of a further assay is caspase 3. The experiment in a line: RT-PCR mRNA expression in MCF-7 cells, caspase 3. In kind it is cell-based, human. The note with it: MCF-7, treated at IC50 = 25.92 μM, 48 h. The method, then: as §3, §4
In a further assay the test system is antiapoptotic Bcl-2 gene. Briefly: RT-PCR mRNA expression in MCF-7 cells, Bcl-2. The format is cell-based, human. The note with it: MCF-7, treated at IC50 = 25.92 μM, 48 h. The method, then:
as §3, §4

Where [3] appears, read: Homo sapiens, MCF7, 48 h, pure compounds, MTT, 48-h incubation, n = 3, read-out: IC50 ± SD MCF-7.
Setting [4] is: pure compounds, MTT, 48-h incubation, n = 3, read-out: IC50 ± SD Hela.
Where [5] appears, read: A549, pure compounds, MTT, 48-h incubation, n = 3.
The mark [6] stands for this setting: HepG2, pure compounds, MTT, 48-h incubation, n = 3.

As usually defined, the IC50 is the concentration that inhibits the measured activity by half. Regarding `CCC(CC[C@@H](C)[C@H]1CC[C@H]2[C@@H]3CC(O)C4=CC(=O)CC[C@]4(C)[C@H]3CC[C@]12C)C(C)C` (stereo partly drawn) [Compound 3, 6-β-hydroxy-24-ethyl-cholest-4-en-3-one], the IC50 in the assay with MCF-7 (setting [3]) is ≥ 50 µM; in the assay with Hela (setting [4]) it was ≥ 50 µM; in the assay with A549 (setting [5]) it was 49.9 ± 1.03 µM; with Normal Cells MCF-10A, ≥ 50 µM.

On to `CCCCCCCCCCCCCCCC(=O)OCC1OC(OC2CCC3(C)C(=CCC4C3CCC3(C)C(C(C)CCC(CC)C(C)C)CCC43)C2)C(O)C(O)C1O` [Compound 6, (6’-O-palmitoyl)-sitosterol-3-O-β-D-glucoside], for which the results for the IC50 in the assay with MCF-7 (setting [3]), in the assay on HepG2 (setting [6]) and in the assay with Normal Cells MCF-10A were ≥ 50 µM, 42.5 ± 1.71 µM and ≥ 50 µM, respectively.

`CC[C@H](CC[C@@H](C)[C@H]1CC[C@H]2[C@@H]3CCC4=CC(=O)CC[C@]4(C)[C@H]3CC[C@]12C)C(C)C` [Compound 2, stigmast-4-en-3-one]: the IC50 with MCF-7 (Homo sapiens, MCF7, 48 h, read-out: IC50 ± SD MCF-7, pure compounds, MTT, 48-h incubation, n = 3) is ≥ 50 µM; in the assay on Hela (48 h, read-out: IC50 ± SD Hela), 32.5 ± 0.89 µM; in the assay on A549 (A549, 48 h), 45.6 ± 0.75 µM; with Normal Cells MCF-10A it was ≥ 50 µM.

As to `O=c1[nH]cc(F)c(=O)[nH]1` [Compound 5-FU, 5-fluorouracil, reference compound], the half-maximal inhibitory concentration (IC50) in the assay with MCF-7 (setting [3]) was 27 ± 0.76 µM; with HepG2 (setting [6]) it was 15.8 ± 0.28 µM; in the assay with Hela (setting [4]), 13 ± 0.65 µM; with A549 (setting [5]) it was 7.47 ± 0.43 µM; in the assay on Normal Cells MCF-10A, ≥ 50 µM.

Regarding `CCC(CCC(C)C1CCC2C3CC=C4CC(OC5OC(CO)C(O)C(O)C5O)CCC4(C)C3CCC12C)C(C)C` [Compound 7, β-sitosterol-3-O-β-D-glucoside], the half-maximal inhibitory concentration (IC50) was 38.1 ± 0.98 µM in the assay with MCF-7 (setting [3]), ≥ 50 µM in the assay on HepG2 (setting [6]) and ≥ 50 µM with Normal Cells MCF-10A.

Turning to `CCCCCC/C=C\C/C=C\CCCCCCC(=O)OC[C@H]1O[C@@H](O[C@H]2CCC3(C)C(=CCC4C3CCC3(C)C(C(C)CCC(CC)C(C)C)CCC43)C2)[C@H](O)[C@@H](O)[C@@H]1O` (stereo partly drawn) [Compound 1, (6’-O-octadeca-8″,11″-dienoyl)-sitosterol-3-O-β-D-glucoside], the “P53 gene mRNA level, fold change” value in the assay with P53 gene is “≈ 3.55 fold and 3.55± 0.28 fold”. In addition, in the assay with BAX, the “BAX mRNA level, fold change” value is 3.77 fold and 3.77± 0.37 fold. For the same molecule, in the assay with MCF-7 cancer cells [1], the “apoptotic cell death, fold vs control” value is reported as 32.6 fold. In addition, the “cell death via necrosis, fold vs control” value in the assay on MCF-7 cancer cells [1] was found to be 10.8 fold. The “apoptotic cell death, total apoptosis” value in the assay on MCF-7 cancer cells [1] (control 0.51%) is 16.63%. Further, the “cell death via necrosis” value with MCF-7 cancer cells [1] (control 0.86%) is given as 9.31%. Further, the IC50 with MCF-7 (setting [3]) is 25.8 µM; in the assay on MCF-7 (pure compounds, MTT, 48-h incubation, n = 3, read-out: IC50 ± SD MCF-7) it was 25.8 ± 1.04 µM; in the assay on HepG2 (setting [6]) it was 27.5 ± 1.04 µM; in the assay with Normal Cells MCF-10A it was ≥ 50 µM. In the assay with MCF-7 (MCF-7, nonlinear regression dose-inhibition curve fit), the “LogIC50 (Figure 4 curve fit)” value is 1.412. Moreover, the “caspase 8 mRNA level, fold change” value with caspase 8 is 1.9 fold and 1.9± 0.13 fold. The molecule further gave a pre-G1 cell population in the assay with MCF-7 cancer cells [2] (control 1.37%) of 25.94%. The G2/M cell population with MCF-7 cancer cells [2] (control 7.46%) amounted to 26.74%. In addition, the “cell population in S” value in the assay with MCF-7 cancer cells [2] (control 34.26%) is 24.95%. For the same molecule, the “caspase 9 mRNA level, fold change” value in the assay on caspase 9 is 5.44 fold and 5.44± 0.49 fold. For the same molecule, in the assay on caspase 3, the “caspase 3 mRNA level, fold change” value is “≈ 5.01 fold and 5.01± 0.27 fold”. In addition, in the assay on antiapoptotic Bcl-2 gene, the “Bcl-2 mRNA level, fold change” value was “≈ 0.81 fold and 0.81± 0.05 fold”.

Turning to `CC[C@H](CC[C@@H](C)[C@H]1CC[C@H]2[C@@H]3CC=C4C[C@@H](O)CC[C@]4(C)[C@H]3CC[C@]12C)C(C)C` [Compound 5, β-sitosterol], the IC50 in the assay with MCF-7 (Homo sapiens, MCF7, 48 h, read-out: IC50 ± SD MCF-7) was ≥ 50 µM; with HepG2 (HepG2, 48 h) it was ≥ 50 µM; in the assay with Hela (48 h, read-out: IC50 ± SD Hela), 42.3 ± 1.02 µM; with A549 (A549, 48 h), ≥ 50 µM; in the assay on Normal Cells MCF-10A, ≥ 50 µM.
